≈ marks a conversion by molar mass, not a printed value.
Experiments:
[1] = Stability of the compound in CaCl2 assessed as change in secondary structure by CD spectra analysis; format: physicochemical
[2] = Stability of the compound in NaCl assessed as change in secondary structure by CD spectra analysis; format: physicochemical
Candida albicans [3] = experiment: Antifungal activity against Candida albicans SP3931 assessed as inhibition of fungal growth incubated for 48 hrs; format: functional
Candida albicans [4] = experiment: Antifungal activity against Candida albicans 17546 assessed as inhibition of fungal growth incubated for 48 hrs; format: functional
Candida albicans [5] = experiment: Antifungal activity against Candida albicans SP3876 assessed as inhibition of fungal growth incubated for 48 hrs; format: functional
Candida albicans [6] = experiment: Antifungal activity against Candida albicans SP3902 assessed as inhibition of fungal growth incubated for 48 hrs; format: functional
[7] = Cytotoxicity against porcine IPEC-J2 cells assessed as reduction in cell viability at 128 uM incubated for 4 hrs by MTT assay; format: toxicity, cell-based, Sus scrofa; conditions: pig, ipec-j2, 4 h
HEK293 = experiment: Cytotoxicity against HEK293 cells assessed as reduction in cell viability at 128 uM incubated for 4 hrs by MTT assay; format: toxicity, cell-based; conditions: human, hek293, 4 h
Candida albicans [8] = experiment: Antifungal activity against Candida albicans CGMCC 2.2086 assessed as inhibition of fungal growth incubated for 48 hrs in presence of CaCl2; format: functional
[9] = Stability of the compound in ZnCl2 assessed as change in secondary structure by CD spectra analysis; format: physicochemical
Candida parapsilosis = experiment: Antifungal activity against Candida parapsilosis CGMCC 2.3989 assessed as inhibition of fungal growth incubated for 48 hrs; format: functional; conditions: Lodderomyces parapsilosis
Candida tropicalis = experiment: Antifungal activity against Candida tropicalis CGMCC 2.1975 assessed as inhibition of fungal growth incubated for 48 hrs; format: functional
[10] = Stability of the compound in KCl assessed as change in secondary structure by CD spectra analysis; format: physicochemical
Candida albicans [11] = experiment: Antifungal activity against Candida albicans CGMCC 2.2086 assessed as inhibition of fungal growth incubated for 48 hrs in presence of MgCl2; format: functional
Candida albicans [12] = experiment: Antifungal activity against Candida albicans CGMCC 2.2086 assessed as inhibition of fungal growth incubated for 48 hrs in presence of NaCl; format: functional
[13] = Hemolytic activity in human red blood cells assessed as hemolysis rate at 512 uM incubated for 1 hr relative to control; format: toxicity, cell-based, Erythrocyte; conditions: read-out: Activity
[14] = Stability of the compound in NH4Cl assessed as change in secondary structure by CD spectra analysis; format: physicochemical
Candida albicans [15] = experiment: Antifungal activity against Candida albicans CGMCC 2.2086 assessed as inhibition of fungal growth incubated for 48 hrs in presence of ZnCl2; format: functional
[16] = Hemolytic activity in human red blood cells assessed as hemolysis incubated for 1 hr; format: toxicity, cell-based, Erythrocyte
[17] = Stability of the compound in MgCl2 assessed as change in secondary structure by CD spectra analysis; format: physicochemical
Candida albicans [18] = experiment: Antifungal activity against Candida albicans CGMCC 2.2086 assessed as inhibition of fungal growth incubated for 48 hrs in presence of FeCl3; format: functional
Candida albicans [19] = experiment: Antifungal activity against Candida albicans 14936 assessed as inhibition of fungal growth incubated for 48 hrs; format: functional
Candida albicans [20] = experiment: Antifungal activity against Candida albicans 56452 assessed as inhibition of fungal growth incubated for 48 hrs; format: functional
Candida albicans [21] = experiment: Antifungal activity against Fluconazole-resistant Candida albicans 58288 assessed as inhibition of fungal growth incubated for 48 hrs; format: functional
Candida albicans [22] = experiment: Antifungal activity against Candida albicans SP3903 assessed as inhibition of fungal growth incubated for 48 hrs; format: functional
[23] = Stability of the compound in FeCl3 assessed as change in secondary structure by CD spectra analysis; format: physicochemical
Candida albicans [24] = experiment: Antifungal activity against Candida albicans CGMCC 2.2086 assessed as inhibition of fungal growth incubated for 48 hrs in presence of NH4Cl; format: functional
Candida albicans [25] = experiment: Antifungal activity against Fluconazole-resistant Candida albicans 56214 assessed as inhibition of fungal growth incubated for 48 hrs; format: functional
Candida albicans [26] = experiment: Antifungal activity against Candida albicans CGMCC 2.2086 assessed as inhibition of fungal growth incubated for 48 hrs; format: functional
Candida albicans [27] = experiment: Antifungal activity against Candida albicans CGMCC 2.2086 assessed as inhibition of fungal growth incubated for 48 hrs in presence of KCl; format: functional

Structure (SMILES): CC(C)[C@H](N)C(=O)N[C@H](C(=O)N[C@H](CCCNC(=N)N)C(=O)N[C@@H](CCCNC(=N)N)C(=O)N[C@@H](Cc1c[nH]cn1)C(=O)N[C@H](C(=O)N[C@H](C(=O)N[C@H](C(=O)N[C@H](C(=O)N[C@H](CCCNC(=N)N)C(=O)N[C@@H](CCCNC(=N)N)C(=O)N[C@@H](Cc1c[nH]cn1)C(=O)N[C@H](C(=O)N[C@H](C(=O)N[C@H](C(=O)N[C@H](C(=O)N[C@H](CCCNC(=N)N)C(=O)N[C@@H](CCCNC(=N)N)C(=O)N[C@@H](Cc1c[nH]cn1)C(=O)N[C@H](C(=O)N[C@H](C(=O)N[C@H](C(=O)N[C@H](C(=O)N[C@H](CCCNC(=N)N)C(=O)N[C@@H](CCCNC(=N)N)C(=O)N[C@@H](Cc1c[nH]cn1)C(=O)N[C@H](C(=O)N[C@H](C(N)=O)C(C)C)C(C)C)C(C)C)C(C)C)C(C)C)C(C)C)C(C)C)C(C)C)C(C)C)C(C)C)C(C)C)C(C)C)C(C)C)C(C)C)C(C)C
- Stability [1]: Stable
- Stability [2]: Unstable
- MIC95 (Candida albicans [3]): 8 µM (≈ 27.2 µg/mL)
- MIC95 (Candida albicans [4]): 8 µM (≈ 27.2 µg/mL)
- MIC95 (Candida albicans [5]): 8 µM (≈ 27.2 µg/mL)
- MIC95 (Candida albicans [6]): 8 µM (≈ 27.2 µg/mL)
- Activity [7]: Toxic
- Activity (HEK293): Toxic
- MIC95 (Candida albicans [8]): 32 µM
- Stability [9]: Stable
- MIC95 (Candida parapsilosis): 4 µM (≈ 13.6 µg/mL)
- MIC95 (Candida tropicalis): 4 µM (≈ 13.6 µg/mL)
- Stability [10]: Stable
- MIC95 (Candida albicans [11]): 16 µM
- MIC95 (Candida albicans [12]): 64 µM
- hemolysis at 1 h, 512 µM [13]: 21.7%
- Stability [14]: Stable
- MIC95 (Candida albicans [15]): 32 µM
- HC50 at 1 h [16]: > 512 µM
- Stability [17]: Stable
- MIC95 (Candida albicans [18]): 16 µM
- MIC95 (Candida albicans [19]): 8 µM (≈ 27.2 µg/mL)
- MIC95 (Candida albicans [20]): 8 µM (≈ 27.2 µg/mL)
- MIC95 (Candida albicans [21]): 8 µM (≈ 27.2 µg/mL)
- MIC95 (Candida albicans [22]): 4 µM (≈ 13.6 µg/mL)
- Stability [23]: Stable
- MIC95 (Candida albicans [24]): 8 µM
- MIC95 (Candida albicans [25]): 4 µM (≈ 13.6 µg/mL)
- MIC95 (Candida albicans [26]): 8 µM (≈ 27.2 µg/mL)
- MIC95 (Candida albicans [27]): 16 µM

Structure (SMILES): CC(C)[C@H](N)C(=O)N[C@H](C(=O)N[C@H](CCCNC(=N)N)C(=O)N[C@@H](CCCNC(=N)N)C(=O)N[C@@H](Cc1c[nH]cn1)C(=O)N[C@H](C(=O)N[C@H](C(N)=O)C(C)C)C(C)C)C(C)C
- Stability [1]: Stable
- Stability [2]: Unstable
- MIC95 (Candida albicans [3]): > 64 µM
- MIC95 (Candida albicans [4]): > 64 µM
- MIC95 (Candida albicans [5]): > 64 µM
- MIC95 (Candida albicans [6]): > 64 µM
- MIC95 (Candida albicans [8]): > 64 µM
- Stability [9]: Stable
- MIC95 (Candida parapsilosis): > 64 µM
- MIC95 (Candida tropicalis): 64 µM (≈ 55.2 µg/mL)
- Stability [10]: Stable
- MIC95 (Candida albicans [11]): > 64 µM
- MIC95 (Candida albicans [12]): > 64 µM
- hemolysis at 1 h, 512 µM [13]: -0.02%
- Stability [14]: Stable
- MIC95 (Candida albicans [15]): > 64 µM
- HC50 at 1 h [16]: > 512 µM
- Stability [17]: Stable
- MIC95 (Candida albicans [18]): > 64 µM
- MIC95 (Candida albicans [19]): > 64 µM
- MIC95 (Candida albicans [20]): > 64 µM
- MIC95 (Candida albicans [21]): > 64 µM
- MIC95 (Candida albicans [22]): > 64 µM
- Stability [23]: Stable
- MIC95 (Candida albicans [24]): > 64 µM
- MIC95 (Candida albicans [25]): > 64 µM
- MIC95 (Candida albicans [26]): > 64 µM
- MIC95 (Candida albicans [27]): > 64 µM

Structure (SMILES): CC(C)[C@H](N)C(=O)N[C@H](C(=O)N[C@H](CCCNC(=N)N)C(=O)N[C@@H](CCCNC(=N)N)C(=O)N[C@@H](Cc1c[nH]cn1)C(=O)N[C@H](C(=O)N[C@H](C(=O)N[C@H](C(=O)N[C@H](C(=O)N[C@H](CCCNC(=N)N)C(=O)N[C@@H](CCCNC(=N)N)C(=O)N[C@@H](Cc1c[nH]cn1)C(=O)N[C@H](C(=O)N[C@H](C(N)=O)C(C)C)C(C)C)C(C)C)C(C)C)C(C)C)C(C)C)C(C)C
- Stability [1]: Stable
- Stability [2]: Unstable
- MIC95 (Candida albicans [3]): > 64 µM
- MIC95 (Candida albicans [4]): 64 µM (≈ 109 µg/mL)
- MIC95 (Candida albicans [5]): > 64 µM
- MIC95 (Candida albicans [6]): > 64 µM
- MIC95 (Candida albicans [8]): > 64 µM
- Stability [9]: Stable
- MIC95 (Candida parapsilosis): > 64 µM
- MIC95 (Candida tropicalis): 4 µM (≈ 6.84 µg/mL)
- Stability [10]: Stable
- MIC95 (Candida albicans [11]): > 64 µM
- MIC95 (Candida albicans [12]): > 64 µM
- hemolysis at 1 h, 512 µM [13]: -1.2%
- Stability [14]: Stable
- MIC95 (Candida albicans [15]): > 64 µM
- HC50 at 1 h [16]: > 512 µM
- Stability [17]: Stable
- MIC95 (Candida albicans [18]): > 64 µM
- MIC95 (Candida albicans [19]): > 64 µM
- MIC95 (Candida albicans [20]): > 64 µM
- MIC95 (Candida albicans [21]): > 64 µM
- MIC95 (Candida albicans [22]): > 64 µM
- Stability [23]: Stable
- MIC95 (Candida albicans [24]): 64 µM
- MIC95 (Candida albicans [25]): > 64 µM
- MIC95 (Candida albicans [26]): > 64 µM
- MIC95 (Candida albicans [27]): > 64 µM
